# Source: US20240199647A1, “ANTI-VIRAL COMPOUNDS” (Aligos Therapeutics, Inc., priority 2022, published 2024)
# Where two headings read alike, the source gives them in different places.
# Legend:
# [1] = molecular target: SARS-Cov-2 3CLpro (Severe acute respiratory syndrome coronavirus 2, UniProt P0DTD1); assay: biochemical; settings: Table A, class symbols, read-out: SARS-Cov-2 (IC50)
# [2] = tested on: human beta-coronavirus OC43; assay: OC43 Coronavirus Assay in HeLa cells (antiviral, cytopathic effect, cell-titer-glo); type: cell-based; settings: Betacoronavirus 1, OC43, HeLa, Table B, OC43 coronavirus in HeLa cells, read-out: EC50
# [3] = tested on: SARS-CoV-2 B.1.1.7 lineage; assay: microbe, parasite or virus in culture; type: cell-based; settings: Severe acute respiratory syndrome coronavirus 2, Table C, SARS-CoV-2 B.1.1.7 in A549-dual_ACE2_TMPRSS2 cells, read-out: A549-dual_ACE2_TMPRSS2 (EC50)
# [4] = in vitro; settings: human
# [5] = Cytotoxicity in HeLa cells without addition of OC43 virus (in parallel); settings: human, HeLa cells, without OC43 virus
Compound,IC50 [1],EC50 ([2]; class symbols),EC50 ([3]; class symbols),CC50 [4],CC50 at 6 days [5],EC50 ([2]; cells given as a bound),EC50 ([3]; cells given as a bound)
CN(C(=O)[C@H](CC1CC1)NC(=O)C(F)(F)F)[C@@H](CC1CC1)C(=O)N1C[C@@]2(C[C@H]1C#N)Oc1cccnc1NC2=O [Compound 66],< 20 nM,< 100 nM,< 100 nM,> 1000 nM,> 10000 nM,,
"CC(C)C[C@@H](C(=O)N1C[C@]2(CC(C)NC2=O)C[C@H]1C#N)N(C)C(=O)[C@H](C)NC(=O)C(F)(F)F (stereo partly drawn) [Compound 21, (2S)—N-((2S)-1-((3S,5S)-3-cyano-8-methyl-6-oxo-2,7-diazaspiro[4.4]nonan-2-yl)-4-methyl-1-oxopentan-2-yl)-N-methyl-2-(2,2,2-trifluoroacetamido)propanamide]",< 20 nM,100 to 1000 nM,100 to 1000 nM,> 1000 nM,> 10000 nM,,
CC(C)C[C@@H](C(=O)N1C[C@@]2(C[C@H]1C#N)Oc1cc(F)cc(F)c1NC2=O)N(C)C(=O)[C@H](Cc1ccc(F)cc1)NC(=O)C(F)(F)F [Compound 69],< 20 nM,,100 to 1000 nM,> 1000 nM,> 10000 nM,> 10000 nM,
C[C@H](NC(=O)C(F)(F)F)C(=O)N(C)[C@@H](CC1CC1)C(=O)N1C[C@@]2(C[C@H]1C#N)Oc1cccc(F)c1NC2=O [Compound 98],< 20 nM,100 to 1000 nM,< 100 nM,> 1000 nM,> 10000 nM,,
CN(C(=O)c1cnc(C(F)(F)F)[nH]1)[C@@H](CC1CC1)C(=O)N1C[C@@]2(C[C@H]1C#N)Oc1cc(F)cc(F)c1NC2=O [Compound 171],20 to 200 nM,1000 to 10000 nM,,> 1000 nM,> 10000 nM,,> 1000 nM
CN(C(=O)[C@H](CC1CC1)NC(=O)C(F)(F)F)[C@@H](CC1CC1)C(=O)N1C[C@@]2(C[C@H]1C#N)Oc1ccccc1NC2=O [Compound 182],< 20 nM,< 100 nM,< 100 nM,> 1000 nM,> 10000 nM,,
CN(C(=O)[C@H](CC1CC1)NS(=O)(=O)C1CC1)[C@@H](CC1CC1)C(=O)N1C[C@@]2(C[C@H]1C#N)Oc1cccnc1NC2=O [Compound 178],< 20 nM,< 100 nM,100 to 1000 nM,> 1000 nM,> 10000 nM,,
CN(C(=O)[C@H](CC1CC1)NC(=O)C(F)(F)F)[C@@H](CC1CC1)C(=O)N1C[C@@]2(C[C@H]1C#N)Oc1c(F)cc(F)cc1CNC2=O [Compound 199],< 20 nM,< 100 nM,100 to 1000 nM,> 1000 nM,> 10000 nM,,
CCC1C[C@@]2(C[C@@H](C#N)N(C(=O)[C@H](CC(C)C)N(C)C(=O)[C@H](C)NC(=O)C(F)(F)F)C2)C(=O)N1 (stereo partly drawn) [Compound 23],< 20 nM,100 to 1000 nM,100 to 1000 nM,> 1000 nM,> 10000 nM,,
"CC(C)C[C@@H](C(=O)N1C[C@@]2(C[C@H]1C#N)OCc1ccccc1NC2=O)N(C)C(=O)c1cc2c(F)cc(F)cc2[nH]1 [Example 4, N—((S)-1-((3R,5'S)-5′-cyano-2-oxo-1,5-dihydro-2H-spiro[benzo[e][1,4]oxazepine-3,3′-pyrrolidin]-1′-yl)-4-methyl-1-oxopentan-2-yl)-4,6-difluoro-N-methyl-1H-indole-2-carboxamide]",20 to 200 nM,,1000 to 10000 nM,> 1000 nM,> 10000 nM,> 1000 nM,
COC[C@H](NC(=O)C(F)(F)F)C(=O)N(C)[C@@H](CC(C)C)C(=O)N1C[C@@]2(C[C@H]1C#N)Oc1cc(F)cc(F)c1NC2=O [Compound 72],< 20 nM,100 to 1000 nM,100 to 1000 nM,> 1000 nM,> 10000 nM,,
CN(C(=O)[C@H](CC1CC1)NS(=O)(=O)C1CC1)[C@@H](CC1CC1)C(=O)N1C[C@@]2(C[C@H]1C#N)Oc1ccccc1CNC2=O [Compound 175],< 20 nM,< 100 nM,100 to 1000 nM,> 1000 nM,> 10000 nM,,
"CC(C)C[C@@H](C(=O)N1C[C@]2(Cc3ccccc3NC2=O)C[C@H]1C#N)N(C)C(=O)[C@H](C)NC(=O)C(F)(F)F [Example 32, (S)—N—((S)-1-((3S,5S)-5-cyano-2′-oxo-1′,4′-dihydro-2′H-spiro[pyrrolidine-3,3′-quinolin]-1-yl)-4-methyl-1-oxopentan-2-yl)-N-methyl-2-(2,2,2-trifluoroacetamido)propanamide]",< 20 nM,1000 to 10000 nM,100 to 1000 nM,> 1000 nM,> 10000 nM,,
CN(C(=O)[C@@H](Cc1ccc(F)cc1)NC(=O)C(F)(F)F)[C@@H](CC1CC1)C(=O)N1C[C@@]2(C[C@H]1C#N)Oc1ncccc1NC2=O [Compound 205],< 20 nM,< 100 nM,< 100 nM,> 1000 nM,> 10000 nM,,
"CC(C)C[C@@H](C(=O)N1C[C@]2(CC(c3ccccc3)=NNC2=O)C[C@H]1C#N)N(C)C(=O)[C@H](C)NC(=O)C(F)(F)F [Example 29, (S)—N—((S)-1-((3S,5R)-3-cyano-6-oxo-9-phenyl-2,7,8-triazaspiro[4.5]dec-8-en-2-yl)-4-methyl-1-oxopentan-2-yl)-N-methyl-2-(2,2,2-trifluoroacetamido)propanamide]",20 to 200 nM,1000 to 10000 nM,100 to 1000 nM,> 1000 nM,> 10000 nM,,
"CC(C)C[C@@H](C(=O)N1C[C@@]2(C[C@H]1C#N)Oc1cc(F)cc(F)c1NC2=O)N(C)C(=O)[C@H](CC1CC1)NC(=O)C(F)(F)F [Example 36, (S)—N—((S)-1-((2R,5'S)-5′-cyano-5,7-difluoro-3-oxo-3,4-dihydrospiro[benzo[b][1,4]oxazine-2,3′-pyrrolidin]-1′-yl)-4-methyl-1-oxopentan-2-yl)-3-cyclopropyl-N-methyl-2-(2,2,2-trifluoroacetamido)propanamide]",< 20 nM,< 100 nM,100 to 1000 nM,> 1000 nM,> 10000 nM,,
C[C@H](NC(=O)C(F)(F)F)C(=O)N(C)[C@@H](CC1CC1)C(=O)N1C[C@@]2(C[C@H]1C#N)Oc1cccnc1NC2=O [Compound 84],< 20 nM,1000 to 10000 nM,< 100 nM,> 1000 nM,> 10000 nM,,
CN(C(=O)c1cc2c(F)cc(F)c(F)c2[nH]1)[C@@H](CC1CC1)C(=O)N1C[C@@]2(C[C@H]1C#N)Oc1cc(F)cc(F)c1NC2=O [Compound 74],20 to 200 nM,,100 to 1000 nM,> 1000 nM,> 10000 nM,> 10000 nM,
CN(C(=O)[C@H](CC1CC1)NC(=O)C(F)(F)F)[C@@H](CC1CC1)C(=O)N1C[C@@]2(C[C@H]1C#N)Oc1cccc(F)c1CNC2=O [Compound 141],< 20 nM,< 100 nM,100 to 1000 nM,> 1000 nM,> 10000 nM,,
"CN(C)C(=O)c1ccc2c(c1)O[C@@]1(C[C@@H](C#N)N(C(=O)[C@H](CC3CC3)N(C)C(=O)[C@H](CC3CC3)NC(=O)C(F)(F)F)C1)C(=O)N2 [Compound 112, (2R,5'S)-5′-cyano-1′-((S)-3-cyclopropyl-2-((S)-3-cyclopropyl-N-methyl-2-(2,2,2-trifluoroacetamido)propanamido)propanoyl)-N,N-dimethyl-3-oxo-3,4-dihydrospiro[benzo[b][1,4]oxazine-2,3′-pyrrolidine]-7-carboxamide]",< 20 nM,< 100 nM,100 to 1000 nM,> 1000 nM,> 10000 nM,,
CN(C(=O)[C@H](CC1CC1)NC(=O)C(F)(F)F)[C@@H](CC1CC1)C(=O)N1C[C@@]2(C[C@H]1C#N)Oc1cc(F)cc(F)c1NC2=O [Compound 55],< 20 nM,< 100 nM,< 100 nM,> 1000 nM,> 10000 nM,,
CN(C(=O)c1cc2cccc(Cl)c2[nH]1)[C@@H](CC1CC1)C(=O)N1C[C@@]2(C[C@H]1C#N)Oc1cc(F)cc(F)c1NC2=O [Compound 133],< 20 nM,100 to 1000 nM,100 to 1000 nM,> 1000 nM,> 10000 nM,,
"CC(C)C[C@@H](C(=O)N1C[C@]2(C[C@H]1C#N)C(=O)Nc1cc(-c3ccccc3)nn12)N(C)C(=O)[C@H](C)NC(=O)C(F)(F)F [Compound 25, (S)—N—((S)-1-((3R,5'S)-5′-cyano-2-oxo-6-phenyl-1,2-dihydrospiro[imidazo[1,2-b]pyrazole-3,3′-pyrrolidin]-1′-yl)-4-methyl-1-oxopentan-2-yl)-N-methyl-2-(2,2,2-trifluoroacetamido)propanamide]",20 to 200 nM,100 to 1000 nM,100 to 1000 nM,> 1000 nM,> 10000 nM,,
"Cc1nnn(C(CC2CC2)C(=O)N(C)[C@@H](CC2CC2)C(=O)N2C[C@@]3(C[C@H]2C#N)Oc2cc(F)cc(F)c2NC3=O)c1C (relative stereo) [Compound 117, (S*)—N—((S)-1-((2R,5'S)-5′-cyano-5,7-difluoro-3-oxo-3,4-dihydrospiro[benzo[b][1,4]oxazine-2,3′-pyrrolidin]-1′-yl)-3-cyclopropyl-1-oxopropan-2-yl)-3-cyclopropyl-2-(4,5-dimethyl-1H-1,2,3-triazol-1-yl)-N-methylpropanamide]",200 to 2000 nM,,,> 1000 nM,> 10000 nM,> 10000 nM,> 1000 nM
